According to PMC12646587, “Advanced cardiotoxicity profiling using field potential imaging with UHD-CMOS-MEA in human iPSC-derived cardiomyocytes” (Toxicological Sciences, 2025):

Tests used:
IKs = tested on: IKs; set-up: method as in Davies et al. 1996; details: ref Davies et al. 1996; cited from earlier work
[1] = tested on: human iPSC-derived cardiomyocytes; assay: Field potential imaging (FPI) with UHD-CMOS-MEA, acute drug treatment; format: cell-based
Procedure: Cryopreserved iCell Cardiomyocytes (FUJIFILM Cellular Dynamics, Inc.) were handled according to the supplier’s instructions. Cells were thawed in a 37 °C water bath for approximately 3 min and resuspended in iCell Thawing Medium to prepare a cell suspension at a final concentration of 1 × 10^7 cells/ml. A total of 10 µl of the cell suspension (100,000 cells per chip) was seeded directly onto the fibronectin-coated electrode area of each chip. Chips were incubated at 37 °C for 1 h to allow cell attachment, after which 1 ml of maintenance medium was gently added. […] Thereafter, medium exchanges were performed twice weekly by replacing half the medium volume.
Compounds were dissolved in culture medium containing 0.1% DMSO and administered cumulatively at increasing concentrations. Drug solutions were applied directly to the culture wells, and measurements were initiated 30 min after administration. […] All recordings were performed under spontaneous beating conditions, with no external pacing applied.
(§1) Recordings were performed at a sampling rate of 2 kHz, with a 2-min recording duration per condition. Data acquisition was controlled via proprietary software (Sony Semiconductor Solutions), and all raw signals were stored for offline analysis. All experiments were conducted in a humidified environment at 37 °C with 5% CO2, ensuring physiological conditions during both drug exposure and recording.
Spikes from hiPSC-derived cardiomyocytes were initially detected at each electrode using a voltage threshold of ±100 µV via BinViewer software (SCREEN Holdings Co., Ltd, Japan). The resulting spike data were then processed using a custom MATLAB (MathWorks, Natick, MA) script to perform beat detection. Firing count histograms were generated using a bin size of 0.5 ms, and peak detection within these histograms identified the timing and propagation duration of beats across the electrode array. For each electrode, the maximum spike amplitude and its corresponding peak timing were calculated to generate heat maps of field potential amplitude and activation timing. […]

cardiomyocytes [2] = details: CTD90 ↑; ref Lu et al. 2019; cited from earlier work
cardiomyocytes [3] = details: FPDc10 (10% prolongation of FPDc); ref Nozaki et al. 2017; cited from earlier work
NaV = details: ref Yao and Tseng 1997; cited from earlier work
hERG = details: read-out: IC50 hERG; ref Busch et al. 1998; cited from earlier work
[4] = tested on: human iPSC-derived cardiomyocytes; assay: PCA of beat parameters: cardiotoxicity risk and mechanism classification; format: cell-based
Procedure: Each parameter set was evaluated for its ability to separate cardiotoxic and non-cardiotoxic compounds while maintaining minimal variance among negative controls. […] To assess cardiotoxicity, PCA scores of test compounds were plotted in the PC space, and their positions were compared with the SD-defined zones of the negative control group. Risk levels were classified as follows: Low risk (within 1 SD), medium risk (between 1 and 2 SD), and high risk (beyond 2 SD). Dose-dependent cardiotoxicity potential was estimated based on displacement from the negative control cluster.
To establish a risk classification framework, the standard deviation (SD) range of negative control compounds in PCA space was used to define 3 zones: Within the SD range (low risk), between 1 and 2 SD (medium risk), and beyond 2 SD (high risk) (Fig. 6B). Risk levels derived from PCA distribution were compared with IC50 and Cmax values reported for each compound and associated ion channels (Table 5).

CaV = details: ref Yao and Tseng 1997; cited from earlier work
[5] = ref Lee et al. 2025; cited from earlier work
hiPSC-CMs [6] = assay: Conventional MEA recording (16-electrode Axion Maestro), acute exposure; format: cell-based, human; details: acute
Procedure: To enable comparison with the UHD-CMOS-MEA recordings, conventional extracellular field potential recordings were performed using 16-electrode MEA plates on a commercially available MEA system (Axion Maestro, Axion Biosystems), in accordance with the general principles of the CiPA initiative. hiPSC-CMs were cultured and maintained on the MEA plates under spontaneous beating conditions at 37 °C. Recordings were conducted after 10 to 14 DIV, and data acquisition and beat detection were performed using the built-in algorithms of the AxIS software (Axion Biosystems), without the use of external pacing. […] Each compound was applied under acute exposure conditions, and field potential recordings were obtained for 30 min following drug administration.
To evaluate the measurement capabilities of a conventional MEA system, the same set of 7 compounds was tested using the 16-electrode Axion Maestro platform.

[7] = tested on: human iPSC-derived cardiomyocytes; assay: PCA and MANOVA of beat parameters after chronic exposure; format: cell-based; details: 0.1 µM, relative to all DMSO time points
Procedure: (§2) For mechanism-of-action classification and the cardiotoxicity assessment of doxorubicin, a one-way multivariate analysis of variance (MANOVA) was employed, using principal component (PC)1 and PC2 scores as dependent variables to evaluate significant differences between drug mechanism groups. Statistical significance was determined at P < 0.05.
PCA was conducted to integrate multiple parameter changes into a comprehensive index of cardiotoxicity. The PCA included 6 selected parameters: IBI, Amplitude, Amplitude STV, Area, Velocity, and Velocity STV (Table 7). The first 2 PCs accounted for a cumulative contribution of 69.4%. […] For statistical analysis of cardiotoxicity across time points, PCA plots were categorized into 15 groups based on concentration and exposure duration. MANOVA was performed to compare each group against the DMSO 0.5 h reference (Table 8). No significant differences were detected among DMSO time points.

[8] = tested on: Engineered heart tissues derived from human iPSCs; set-up: method as in Arefin et al. 2023; details: ref Arefin et al. 2023, cited from earlier work
hiPSC-CMs [9] = assay: Conventional MEA, chronic exposure; format: cell-based, human; details: 0.1 μM
Procedure: Furthermore, a direct comparison was conducted between the UHD-CMOS-MEA and conventional MEA systems under chronic exposure to 0.1 μM doxorubicin.

mouse cardiomyocytes = tested on: mouse cardiomyocytes; set-up: method as in Lin et al. 2024; details: ref Lin et al. 2024; cited from earlier work
[10] = tested on: human iPSC-derived cardiomyocytes; assay: FPI with UHD-CMOS-MEA, chronic exposure up to 96 h; format: cell-based
Procedure: as §1
Spikes from hiPSC-derived cardiomyocytes were initially detected at each electrode using a voltage threshold of ±100 µV via BinViewer software (SCREEN Holdings Co., Ltd, Japan). The resulting spike data were then processed using a custom MATLAB (MathWorks, Natick, MA) script to perform beat detection. Firing count histograms were generated using a bin size of 0.5 ms, and peak detection within these histograms identified the timing and propagation duration of beats across the electrode array. For each electrode, the maximum spike amplitude and its corresponding peak timing were calculated to generate heat maps of field potential amplitude and activation timing.
as §2
To validate the chronic cardiotoxicity assessment using CMOS-MEA measurements, FPI was performed following long-term exposure to doxorubicin.

rat cardiomyocytes = details: ref Sag et al. 2011, Ikeda et al. 2019; cited from earlier work
monolayer hiPSC-CMs = details: ref Maddah et al. 2020; cited from earlier work
[11] = acute, statistically significant change vs before
[12] = 0.1 μM, prolonged exposure (48 h)

CN1CCN(CCCCN2C(=O)CN(/N=C/c3ccc(-c4ccc(Cl)cc4)o3)C2=O)CC1 [Azimilide]
IC50 (IKs): 0.7 µM
IBI (interbeat interval) [1, 11]: increased and ↑
IBI STV [1, 11]: significantly elevated and ↑
BR (beat rate) ([1]; acute, statistically significant change vs before, arrows = direction, – = none): decreased and ↓
FPI (concentration at which changes were detected) ([1]; changed parameters in brackets in each cell): 1 (BR, IBI, IBI STV) μM
HCA assay (cardiomyocytes [2]): 1.0 ([Lu et al. 2019]) (CTD90 ↑) µM
MEA assay (cardiomyocytes [3]): 0.129 ([Nozaki et al. 2017]) (FPDc10) µM
IC50 (NaV): 19 µM
IC50 (hERG): 5.2 µM
FPI PCA (concentration at which changes were detected) [4]: 1 µM
IC50 (CaV): 17.8 µM
Cmax Free [5]: 0.07 ([Lee et al. 2025]) μM
IBI (hiPSC-CMs [6]): prolongation
beat frequency (hiPSC-CMs [6]): consistent reductions
field potential (spike) amplitude (hiPSC-CMs [6]): decreasing trend
magnitude of change in propagation area (hiPSC-CMs [6]): less than 5%
propagation area (hiPSC-CMs [6]): statistically significant reduction

COc1cccc2c1C(=O)c1c(O)c3c(c(O)c1C2=O)C[C@@](O)(C(=O)CO)C[C@@H]3O[C@H]1C[C@H](N)[C@H](O)[C@H](C)O1 [Doxorubicin]
MANOVA of PCA groups vs DMSO [7]: significant differences were observed after 24 h
effect on contractile force ([8]; 125 or 500 nM): no observable effects
concentration giving reduced contractile force ([8]; after 48 h of exposure): 1000 nM
exposure time at which a reduction in spike amplitude began to be detected (hiPSC-CMs [9]): 48 h
concentration giving impaired Ca^2+ handling and reduced contractility (mouse cardiomyocytes): 1000 nM
beat area ([10]; 0.03 µM, after 24 h): significant decreases
peak potential ([10]; 0.03 µM, after 24 h): significant decreases
beat rate ([10]; 0.03 µM, chronic exposure): did not significantly alter
changes in conventional parameters such as beat rate and IBI ([10]; 0.1 µM): evident only after 72 h
exposure time at which a decline in conduction velocity was detected ([10]; 0.1 μM, CMOS-MEA): 24 h
beat area ([10]; 0.1 µM, beginning at 48 h): reductions
peak potential ([10]; 0.1 µM, beginning at 48 h): reductions
conduction velocity [10, 12]: decrease
temporal variability metrics (CV and STV) [10, 12]: increase
STV of peak potential ([10]; 0.1 µM, within 0.5 h): decreased
concentration at which cardiotoxicity was detected ([10]; within 24 h, UHD-CMOS-MEA): 30 nM
concentrations giving Ca^2+ handling abnormalities, apoptosis and contractile dysfunction (rat cardiomyocytes): only at micromolar concentrations
concentration at which structural changes were detected (monolayer hiPSC-CMs): exceeding 0.3 μM
